Test results published in US7687523B2, “3-heteroaryl-3,9-diazabicyclo[3.3.1]nonane derivatives as nicotinic acetylcholine receptor agonists” (Neurosearch A/S, priority 2006, dated 2010).
Read-outs that look alike come from different tables or passages of the source.

Biological target: nAChRs comprised of α4 and β2 subunits (Rattus norvegicus, UniProt P09483+P12390)
Assay: In vitro inhibition of 3H-cytisine binding
From the text: In Vitro Inhibition of ^3H-Cytisine Binding
Molecular biology studies have elucidated that there are at least ten nicotinic receptor genes in the brain. The predominant subtype with high affinity for nicotine is comprised of α4 and β2 subunits. nAChRs of the latter type can selectively be labelled by the nicotine agonist ^3H-cytisine.
A standard assay for determining in vitro inhibition of ^3H-cytisine binding is described in e.g. WO 02/096911. When subjected to this test the compounds of the invention show inhibitory activity on the micromolar or sub-micromolar range.

Sequence of nAChRs comprised of α4 and β2 subunits (P09483 31-630): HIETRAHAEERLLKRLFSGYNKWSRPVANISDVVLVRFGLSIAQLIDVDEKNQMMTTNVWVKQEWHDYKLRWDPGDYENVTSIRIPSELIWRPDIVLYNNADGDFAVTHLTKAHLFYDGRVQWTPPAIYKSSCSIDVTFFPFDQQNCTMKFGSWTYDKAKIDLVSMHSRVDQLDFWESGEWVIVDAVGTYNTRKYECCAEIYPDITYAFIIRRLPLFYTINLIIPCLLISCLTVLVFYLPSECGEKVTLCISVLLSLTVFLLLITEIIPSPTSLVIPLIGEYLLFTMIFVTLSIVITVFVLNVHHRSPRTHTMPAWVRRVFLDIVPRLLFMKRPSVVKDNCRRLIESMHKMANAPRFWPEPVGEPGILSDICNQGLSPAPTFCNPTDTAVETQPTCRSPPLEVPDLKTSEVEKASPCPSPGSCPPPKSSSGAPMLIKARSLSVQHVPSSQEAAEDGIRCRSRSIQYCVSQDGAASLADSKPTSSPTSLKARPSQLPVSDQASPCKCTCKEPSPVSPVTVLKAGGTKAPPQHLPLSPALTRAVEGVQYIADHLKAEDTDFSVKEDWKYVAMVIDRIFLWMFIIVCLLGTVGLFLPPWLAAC
Sequence of nAChRs comprised of α4 and β2 subunits (P12390 25-500): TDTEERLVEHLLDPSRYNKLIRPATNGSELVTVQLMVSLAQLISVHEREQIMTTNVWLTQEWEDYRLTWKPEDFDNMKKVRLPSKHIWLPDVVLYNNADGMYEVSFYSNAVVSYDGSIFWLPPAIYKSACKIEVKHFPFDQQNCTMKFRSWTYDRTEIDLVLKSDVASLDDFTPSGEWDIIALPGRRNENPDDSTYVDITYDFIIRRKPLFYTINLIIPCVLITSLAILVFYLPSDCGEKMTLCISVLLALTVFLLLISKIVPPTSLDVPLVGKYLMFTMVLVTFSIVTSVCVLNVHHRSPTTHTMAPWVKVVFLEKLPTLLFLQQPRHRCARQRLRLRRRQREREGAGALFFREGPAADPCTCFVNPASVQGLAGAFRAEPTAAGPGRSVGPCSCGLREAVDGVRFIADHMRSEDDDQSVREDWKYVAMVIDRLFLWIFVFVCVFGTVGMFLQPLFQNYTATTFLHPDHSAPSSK

Compound | IC50 | IC50 (3H-cytisine as radioligand, standard assay as described in WO 02/096911, read-out: In vitro Inhibition of 3H-cytisine Binding IC50)
CN1C2CCCC1CN(c1cncc(Cl)c1)C2 [Compound A1, 3-(5-Chloro-pyridin-3-yl)-9-methyl-3,9-diaza-bicyclo[3.3.1]nonane] | 6.3 nM | –
c1cncc(N2CC3CCCC(C2)N3)c1 [Compound B1, 3-Pyridin-3-yl-3,9-diaza-bicyclo[3.3.1]nonane] | 2.5 nM | –
CN1C2CCCC1CN(c1cccnn1)C2 [Compound C1, 9-Methyl-3-pyridazin-3-yl-3,9-diaza-bicyclo[3.3.1]nonane] | – | 460 nM
